# Test results taken from a melting point compilation (Tetko et al.; mined from patent text by program, amines drawn as free bases though some values may be those of a salt).
row,Structure (SMILES),melting point
1,CN(C)CCNc1ccc(-c2n[nH]c3ncccc23)cc1,165 to 167 °C
2,CC(C)(C)C(=O)C(Br)Oc1ccc(S(=O)(=O)c2ccccc2)cc1 (stereo not given),157 to 162 °C
3,COC(=O)c1ccc(=O)n(CCNC(=O)c2cnc3ccccc3c2)c1,174 to 175 °C
4,CC(C(=O)N1c2ccccc2C(=O)Nc2cccnc21)N1CCN(C)CC1 (stereo not given),223 to 224 °C
5,O=[N+]([O-])C(CSc1cccc(Cl)c1)=C1NCCN1Cc1ccc(Cl)nc1,143 °C
6,O=C(NC1CCOCC1)c1cnccc1C(F)(F)F,149 to 150 °C
7,COc1cc(CCN2CCN(c3nsc4ccccc34)CC2)c(NC(=O)Nc2ccccc2C)cc1OC,200 °C
8,C=Cc1ccccc1C(=O)n1nnc2ccccc2c1=O,120 °C
9,CNc1ccc(OCCN2CCC(Cc3ccc(C)cc3)CC2)cc1,136 to 137 °C
10,Cn1nc(-c2ccc([N+](=O)[O-])o2)c2c(NO)ncnc21,294 °C
11,CCOC(=O)COc1cccc(-n2nc(-c3ccc(F)cc3)c3cccnc32)c1,130 to 131 °C
12,CC(n1cncn1)C(O)(COc1ccc(Cl)cc1)C(C)(C)C (stereo not given),80 to 104 °C
13,NC(=O)CNC(=O)c1cccc(-c2ccc(Cl)c3cc(Cc4ccc(F)c(F)c4)sc23)c1,188 to 189 °C
14,CC(C)(C)c1ccc(NC(=O)Nc2ccc(Oc3cc(Cl)ncn3)cc2)cc1,111 to 112 °C
15,CC1Cc2ccc(Cl)cc2C(c2ccc([N+](=O)[O-])cc2)O1 (stereo not given),120 to 123 °C
16,COc1cc2c(cc1OC)C(c1ccco1)=NN=C(C)C2,155 to 157 °C
17,Cn1cncc1C(O)(c1ccc(Cl)cc1)c1ccc2c(c1)c(-c1nc(-c3ccccc3)cs1)cc(=O)n2C (stereo not given),200 °C
18,CN(C)c1ccc(C(=O)C(F)c2cccc(Cl)c2)cc1 (stereo not given),90 to 92 °C
19,COc1ccc(C(=O)Nc2nc3cc4c(cc3[nH]2)NC(=O)C4(C)C)cc1,> 300 °C
20,CNC1CC=C(c2c[nH]c3cc([N+](=O)[O-])ccc23)CC1 (stereo not given),170 to 172 °C
21,COc1ccc2nc(C)cc(NNC(=O)Nc3ccc(N(CCCl)CCCl)cc3)c2c1,184 to 186 °C

row,Structure (SMILES),melting point
1,CSc1nc2ccc(Br)cc2o1,95 to 96 °C
2,C#Cc1ccc(-c2ccccc2)c(C)c1,57 to 59 °C
3,O=C(c1ccc(F)cc1)C1CCN(CC2CC(c3ccc4[nH]c(=O)oc4c3)=NO2)CC1 (stereo not given),188 to 190 °C
4,O=c1c2cnc(N3CCOCC3)nc2sn1CCN1CCCCC1,98 to 100 °C
5,NC(=O)NC[C@@H]1CCCc2cc(Sc3cccc(F)c3)ccc21,115 to 116 °C
6,COc1cc2c(c(OC)c1)C1=C(CC2)C2=CCC(=O)C2(C)CC1 (stereo not given),120 to 121 °C
7,CC12CCC3C(CC(Cl)C4(O)CC=CCC34C)C1CC=C2Br (stereo not given),125 to 126 °C
8,COc1cc(CC(C#N)=CN2CCOCC2)cc(OC)c1N,128 to 129 °C
9,Cc1cccc(-c2ccccc2C(=O)NCCc2ccccc2)c1N1C(=O)c2ccccc2C1=O,156 °C
10,CCc1cn(CC)cc(-c2cccc(C(F)(F)F)c2)c1=O,67 to 70 °C
11,COc1ccc(OC)c2c(=O)c3c(Cl)ccc([N+](=O)[O-])c3sc12,222 to 228 °C
12,CC(C)c1cc(C(C)C)c(S(=O)(=O)n2cc3c4c(cccc42)C(=O)CC3)c(C(C)C)c1,124 to 130 °C
13,Cc1ccc(C2=CCC(O)CC2)cc1 (stereo not given),96.5 to 97.5 °C
14,O=C(Nc1ccccc1SCc1ncon1)c1ccc(Cl)cc1,103 °C
15,COc1cc(CN2CCc3cc(OCc4ccccc4)c(OC)cc3C2=O)cc(OC)c1,82 to 83 °C
16,C/C=C\Cn1c(Oc2cc(C)cc(C)c2)c(C(C)C)c(=O)[nH]c1=O,141 to 142 °C
17,O=C(CCl)[C@H](Cc1ccccc1)N(Cc1ccccc1)Cc1ccccc1,45.8 to 46.8 °C
18,OC(CNCCCc1ccc(OCCOCCc2ccccc2)cc1)COc1ccccc1 (racemic),76 to 78 °C
19,Oc1ccc(Br)cc1C12CC3CC(CC(C3)C1)C2,140 to 141 °C
20,CC1(C)CCC(C)(C)c2c(OS(=O)(=O)C(F)(F)F)cc(-c3ccccc3)cc21,110 °C
21,Cc1ccccc1N1CCN(S(=O)(=O)CC23CCC(CC2=NO)C3(C)C)CC1 (stereo not given),174 to 175 °C

row,Structure (SMILES),melting point
1,C=CC(CCc1ccccc1)NC(=O)c1ccccc1 (stereo not given),131 °C
2,N#CCc1ccc(OCc2ccccc2)c(OCc2ccccc2)c1CCc1cccc(OCc2ccccc2)c1,90 °C
3,O=[N+]([O-])c1ccc2nc(CS(=O)c3ccccn3)[nH]c2c1 (stereo not given),207 to 209 °C
4,COC(=O)C1CC2(CN1C(=O)CN(C)CC(=O)C(Cc1ccccc1)NC(=O)c1ccccc1)SCCS2 (stereo not given),60 to 62 °C
5,Cc1ccc(Oc2ccc(-c3ccc(Cl)cc3)cc2)cc1,130 °C
6,C[C@H](NP(=O)(Cc1ccccc1)Cc1ccccc1)C(=O)N1CCC[C@H]1C(=O)N1CCC[C@H]1C(N)=O,89 °C
7,C[C@@H](n1cnc2cc(N)c(F)cc2c1=O)[C@](O)(Cn1cncn1)c1ccc(F)cc1F,124 to 125 °C
8,CS(=O)(=O)c1cc(S(F)(F)(F)(F)F)ccc1C(=O)c1cnoc1C1CC1,168 to 170 °C
9,O=C(c1ccc(C(=O)c2ccc(F)c([N+](=O)[O-])c2)cc1)c1ccc(F)c([N+](=O)[O-])c1,221 to 223 °C
10,COC1=CC(=O)C=C(Br)C1=O,157 to 158 °C
11,CC(C)(O)CNc1nccc(-c2c(-c3ccc(F)cc3F)nc3c(CC4CC4)nccn23)n1,174 to 176 °C
12,O=C1c2ccccc2C(=O)N1CCCCN1CCN(C(c2ccccc2)c2ccccc2)CC1,125 to 129 °C
13,O=C1CC2(CCCC2)C1(Cl)CC(Cl)(Cl)Cl (stereo not given),70 to 73 °C
14,COc1ccc(C(CC#N)CC#N)cc1O,90 to 92 °C
15,CC(c1oc2ccccc2c(=O)c1-c1ccccc1)n1nc(-c2cccc(O)c2)c2c(N)ncnc21 (stereo not given),212 to 216 °C
16,CN1[C@H]2CC[C@@H]1[C@H](c1nc(-c3ccncc3)no1)[C@@H](c1ccc3c(c1)OCO3)C2,110 to 112 °C
17,C#CC(C)N1C(=O)c2ccccc2C1=O (stereo not given),104 to 106 °C
18,N#Cc1c(N)[nH]c(Br)c1C#N,> 210 °C
19,Cc1cccc(C2c3cc(NC(=O)CC(C)(C)C)c(C)c(C)c3OC2(C)C)c1 (stereo not given),156 to 157 °C
20,N#Cc1c(Cl)cccc1C(Cl)(Cl)Cl,121 to 122 °C

# Other lines, results leading:
row,melting point,Structure (SMILES)
1,155 to 175 °C,O=C(O)C=C1c2ccccc2CCc2cc(Cl)ccc21
2,110 °C,CC(C)(C)OC(=O)CO/N=C/c1cccc([N+](=O)[O-])c1
3,129 to 131 °C,CCOC(=O)Cn1c(C(=O)NCc2nnc(C)n2-c2sc(CC)cc2C(=O)c2ccccc2)cc2ccccc21
4,96 to 97 °C,CC(C)(C)OC(=O)C1=Cc2cc(Br)ccc2OC1
5,232 to 233 °C,COC(=O)c1cccc2nc(N)sc12
6,> 250 °C,Cc1cc(=O)n(-c2cc3[nH]c(=O)sc3cc2F)c(=O)n1C
7,130 to 131 °C,CC(C)c1nn(-c2ccc(C(F)(F)F)cn2)cc1CCCOc1cc(CCC(=O)O)n(C(C)C)n1
8,155 to 158 °C,NC(=O)C(O)c1c(Cl)cccc1Cl (stereo not given)
9,328 °C,CCOC(=O)c1c[nH]c2cnc3c(F)c(Cl)c(F)cc3c2c1=O
10,158 °C,O[C@@H]1CN=C(c2cccs2)O[C@H]1c1ccccc1 (racemic)
11,120 to 123 °C,O=C([C@@H]1CSCN1C(=O)c1ccncc1)N1CCSC1
12,217 to 218 °C,COC(=O)c1c(Cc2ccc(S(C)(=O)=O)nc2)c(=O)c2ccc(C)nc2n1-c1ccccc1
13,138 to 140 °C,CC1(C)CCCC1CNC(=O)C=Cc1ccc(C(=O)O)cc1 (stereo not given)
14,111 to 115 °C,C=C(C)C(=O)NCCCCCC(=O)Nc1cc(Cl)c(C)c(Cl)c1O
15,152 °C,CCCCOc1c(CNC(=O)OC(C)(C)C)n(CC(C)C)c(=O)c2ccc(-c3noc(C)n3)cc12
16,85.5 to 89 °C,CCN1C(=O)CCC2(CCC(=O)c3ccccc32)C1=O (stereo not given)
17,86 to 88 °C,COC(=O)C(C(=O)OC)c1ccc(Br)cc1[N+](=O)[O-]
18,61 to 64 °C,CCCCCc1nc(C#N)c(C#N)nc1O
19,114 to 117 °C,Cc1nccc(N2CCC(O)(C(=O)N3CCN(C(=O)c4ccc(Br)cc4)CC3)CC2)n1

row,melting point,Structure (SMILES)
1,149 to 151 °C,O=C(C(=C1SCS1)c1ccncc1)c1ccc(Cl)cc1
2,123 to 126 °C,COC(=O)CCCc1cc2cc(Cl)ccc2n1S(=O)(=O)c1cccc2nsnc12
3,106 to 107 °C,CCNc1nc(Nc2ccccc2)ncc1CCC(=O)OCC
4,111 to 112 °C,CCCCCCc1c(C(=O)O)sc2ccsc12
5,115 °C,CN1CCC(OC(c2ccccc2)c2nc3ccccc3s2)CC1 (stereo not given)
6,83.5 to 85.5 °C,C=C(CC)C(=O)c1ccc(OCC(=O)O)c(Cl)c1
7,98 to 101 °C,CC1(C)SC(c2ccccc2OCCO[N+](=O)[O-])NC1C(=O)O (stereo not given)
8,196 to 197 °C,CCCCOc1c(N(C)C(=O)OC(C)(C)C)n(CC(C)(C)C)c(=O)c2ccc(O)cc12
9,180 to 182 °C,CC(=O)Nc1nc2c(s1)C(=O)C(Br)CC2 (stereo not given)
10,96 to 97 °C,CN(C)CCCCCCc1ccc(NC=NO)cc1
11,204 to 205 °C,Cc1cc2c(-c3ccccc3C)c(C(=O)O)c(=O)n(C)c2cc1Cl
12,97 to 98 °C,CCOC(=O)Cc1ccc(-c2nc(COc3ccc(CO)cc3OC)c(C)o2)cc1
13,202 to 205 °C,CCOCc1nc2c(N)nc3cc(OCc4ccccc4)ccc3c2n1CC(C)(C)NC(C)=O
14,68 to 70 °C,COCOc1c(CCO)c(OC)c(OCOC)c(CCCCCc2c(OC)c(OCOC)c(CCO)c(OC)c2OCOC)c1OC
15,102 to 105 °C,CCC12CCC3=C(CCc4cc(OC)ccc43)C1CCC2O (stereo not given)
16,103 to 105 °C,CCCCn1c(=O)c2c(ncn2S(=O)(=O)c2c(C)noc2C)n(CCCC)c1=O
17,170 to 174 °C,CCCc1c(N)c(C(N)=O)nn1C
18,175 to 177 °C,COc1cc(OC)nc(CC(=O)O)n1
19,203 to 205 °C,CCCCc1ccc(NS(=O)(=O)c2ccc(N3CCNC3=O)cc2)cc1
